Key:
[1] = system: murine NLK 3′UTR; assay: Luciferase fused to murine NLK 3′UTR in K562 cells; assay type: cell-based, mouse; conditions: transient transfection in K562, metformin 72 hrs
[2] = system: BFU-E erythroid and CFU-GM myeloid colonies; assay: Colony assays in methylcellulose (BFU-E, CFU-GM); assay type: cell-based, human; conditions: metformin
Protocol: FIG. 9. Metformin improves expansion of CD235+ erythroblasts and BFU-E erythroid colony formation in human RPS19- and RPL11-insufficiency from CB CD34+ progenitors. (Panel A). CD34+ HSPCs were transduced with shRNA against control (shLuc), RPS19 (shRPS19) or RPL11 (shRPL11) and after sorting, were differentiated for 14 days in the presence or absence of 50 mM metformin. Cells were counted and the percentage expressing CD235+ erythroid (left) and CD11b+ myeloid (right) was determined by flow cytometry. Obtained values were multiplied to give an overall number that was normalized to the untreated control (grey columns). Values are presented as a percentage of the untreated control. (Panel B) Direct comparison between metformin treated and untreated cultures is facilitated by normalizing the metformin-treated values to the untreated values in control, RPS19- and RPL11-insufficient groups. Values are expressed as a fold induction relative to untreated. (Panel C) Transduced and sorted CD34+ progenitors were cultured in methylcellulose in the presence or absence of metformin for 16 days and BFU-E erythroid (left) and CFU-GM myeloid (right) colonies scored. Values are represented as the percentage of colonies induced in untreated controls (grey columns). (Panel D). To directly compare the effect of metformin in each group, metformin-treated cultures were normalized to untreated cultures and are expressed as a fold induction of the untreated control. (Panel E) Representative images of BFU-E colonies at day 14.Scale bar=[…]. […] Statistics: two-tailed Student's t test, significant *P<0.05
Sorted hematopoietic cells were seeded in methylcellulose medium containing IL-3, stem cell factor, granulocyte macrophage colony-stimulating factor, and erythropoietin (H4434; […] Technologies) in triplicate, with 1000 cells per plate. Erythroid (burst-forming unit erythroid) and myeloid (colony-forming unit, granulocyte-macrophage) colonies were counted 14-18 days later. In some cases, 3000 (shRPL11) or 5000 (shRPS19+TGFβ) cells per plate were added to ensure enough colonies for robust statistical analysis.
Sorted HSPCs were seeded in cytokine-containing methylcellulose medium (H4434; […] Technologies) in triplicate, with 1000 cells per plate. Erythroid (burst-forming unit erythroid) and myeloid (colony-forming unit, granulocyte-macrophage) colonies were counted 14-18 days later.

SMILES: CN(C)C(=N)N=C(N)N [metformin]
- decrease of luciferase activity, murine 3′UTR [1]: 61.6%
- fold increase of BFU-E colonies ([2]; RPL11-insufficiency): 2.2 fold
- BFU-E erythroid colonies, % of vector control (shLuc) ([2]; RPL11-insufficiency, 8.2% untreated): 14.3%
- fold increase of BFU-E colonies ([2]; RPS19-insufficiency): 2.9 fold
- BFU-E erythroid colonies, % of vector control (shLuc) ([2]; RPS19-insufficiency, 7.7% untreated): 16.3%
- size of BFU-E colonies ([2]; RPS19-insufficient progenitors): only modestly improve
- effect on CFU-GM colonies [2]: did not affect
